# Literature values, collected in patent US20230068267A1, “PLANT EXTRACT COMPOSITION FOR THE TREATMENT OF CARDIOVASCULAR AND METABOLIC DISEASES” (Meda Pharma S.p.A., priority 2020, published 2023).
# Experiments:
# [1] = molecular target: T1, HMG-CoA reductase (Homo sapiens, UniProt P04035); conditions: statin-like properties; Di Donna 2009
# T1 sequence (P04035 1-888): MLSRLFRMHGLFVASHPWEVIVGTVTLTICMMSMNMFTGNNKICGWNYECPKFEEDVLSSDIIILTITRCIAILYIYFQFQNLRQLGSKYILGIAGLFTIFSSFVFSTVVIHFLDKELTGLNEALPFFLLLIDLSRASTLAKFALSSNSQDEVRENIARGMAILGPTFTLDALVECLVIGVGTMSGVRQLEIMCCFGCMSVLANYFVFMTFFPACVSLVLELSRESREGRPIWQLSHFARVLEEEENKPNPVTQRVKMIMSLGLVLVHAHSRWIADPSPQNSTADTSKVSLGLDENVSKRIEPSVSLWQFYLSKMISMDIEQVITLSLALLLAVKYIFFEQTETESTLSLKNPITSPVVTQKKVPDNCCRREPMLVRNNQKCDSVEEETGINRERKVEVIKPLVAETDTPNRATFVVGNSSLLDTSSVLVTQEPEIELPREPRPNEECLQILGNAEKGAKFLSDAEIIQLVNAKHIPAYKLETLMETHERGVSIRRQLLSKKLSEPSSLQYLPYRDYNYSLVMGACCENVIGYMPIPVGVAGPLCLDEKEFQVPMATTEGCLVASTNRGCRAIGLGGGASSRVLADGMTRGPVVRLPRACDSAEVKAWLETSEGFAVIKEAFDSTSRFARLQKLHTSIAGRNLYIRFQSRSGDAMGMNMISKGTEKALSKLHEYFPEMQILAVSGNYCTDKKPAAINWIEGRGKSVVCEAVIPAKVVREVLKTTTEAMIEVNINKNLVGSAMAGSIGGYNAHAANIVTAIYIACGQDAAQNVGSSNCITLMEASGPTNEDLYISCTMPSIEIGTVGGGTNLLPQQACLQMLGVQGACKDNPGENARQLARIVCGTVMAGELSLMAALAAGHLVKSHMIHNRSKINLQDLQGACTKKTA
# [2] = test system: LDL cholesterol; conditions: Yu et. al. 2005
inhibitory action upon HMG-CoA reductase [1],Compound,inhibition of the oxidation of LDL cholesterol [2]
inhibitory action upon HMG-CoA reductase,C[C@@H]1O[C@@H](O[C@@H]2[C@@H](Oc3cc(O)c4c(c3)O[C@H](c3ccc(O)cc3)CC4=O)O[C@@H](COC(=O)C[C@@](C)(O)CC(=O)O)[C@H](O)[C@H]2O)[C@@H](O)[C@H](O)[C@H]1O [Melitidin],–
inhibitory action upon HMG-CoA reductase,COc1ccc([C@@H]2CC(=O)c3c(O)cc(O[C@H]4O[C@@H](COC(=O)C[C@@](C)(O)CC(=O)O)[C@H](O)[C@@H](O)[C@@H]4O[C@@H]4O[C@@H](C)[C@H](O)[C@@H](O)[C@@H]4O)cc3O2)cc1O [brutieridin],–
–,Rutin,inhibit the oxidation of LDL cholesterol
